In data set [1] the test system is Mus musculus. In words: Antidiabetic activity in lean normal BALB/c mouse assessed as effect on blood lactate level at equimolar dose of 0.5 mmol/kg galegine administered daily through diet for 7 days. It counts as functional, organism-based.
In data set [2] the test system is Mus musculus. In words: Antiobesity activity in lean normal BALB/c mouse assessed as change in average daily weight at equimolar dose of 0.5 mmol/kg galegine administered daily through diet for 7 days. It counts as functional, organism-based.
Data set [3] deals with Mus musculus. In words: Hypoglycemic activity in lean normal BALB/c mouse assessed as blood glucose level at equimolar dose of 0.5 mmol/kg galegine administered daily through diet for 7 days. The format is functional, organism-based.
In data set [4] the test system is Mus musculus. The data set is described as follows: Antiobesity activity in lean normal BALB/c mouse assessed as change in average daily food intake at equimolar dose of 0.5 mmol/kg galegine administered daily through diet for 7 days. It counts as functional, organism-based.
The test system of data set [5] is Mus musculus. In words: Antiobesity activity in lean normal BALB/c mouse assessed as change in average daily weight at 0.5 mmol/kg/day administered through diet for 7 days relative to time-matched control. It counts as functional.
Data set [6] deals with Mus musculus. The data set is described as follows: Hypoglycemic activity in lean normal BALB/c mouse assessed as blood glucose level at 0.5 mmol/kg/day administered through diet for 7 days relative to time-matched control. It counts as functional.
Data set [7] concerns Mus musculus. The data set is described as follows: Antiobesity activity in lean normal BALB/c mouse assessed as change in average daily food intake at 0.5 mmol/kg/day administered through diet for 7 days relative to time-matched control. It counts as functional.
In data set [8] the test system is Mus musculus. The data set is described as follows: Toxicity in lean normal BALB/c mouse assessed as overt signs of behavioural changes at equimolar dose of 0.5 mmol/kg galegine administered daily through diet for 7 days. The format is organism-based. Conditions: in vivo, po, 168 h.
The subject of data set [9] is Mus musculus. The data set is described as follows: Antiobesity activity in lean normal BALB/c mouse assessed as change in average daily weight at 0.72 mmol/kg/day administered through diet for 7 days relative to time-matched control. The format is functional.
Data set [10] in a line: Metabolic stability in ob/ob mouse liver microsomes assessed as oxidative hydroxylation at 50 uM after 45 mins by HPLC-MS analysis. It counts as ADME, Microsome. To be noted: 0.75 h. On the technique in general: Liver microsomes are vesicles of endoplasmic reticulum, rich in cytochrome P450 enzymes.
Data set [11] relates to Mus musculus. The data set is described as follows: Antiobesity activity in lean normal BALB/c mouse assessed as change in average daily food intake at 0.72 mmol/kg/day administered through diet for 7 days relative to time-matched control. The format is functional.
Data set [12] has as its system Mus musculus. The data set is described as follows: Hypoglycemic activity in lean normal BALB/c mouse assessed as blood glucose level at 0.72 mmol/kg/day administered through diet for 7 days relative to time-matched control. It counts as functional.
Data set [13] deals with Mus musculus. In words: Hypoglycemic activity in lean normal BALB/c mouse assessed as blood glucose level at 0.52 mmol/kg/day administered through diet for 7 days relative to time-matched control. The format is functional.
Data set [14] has as its system Mus musculus. The data set is described as follows: Antiobesity activity in lean normal BALB/c mouse assessed as change in average daily weight at 0.52 mmol/kg/day administered through diet for 7 days relative to time-matched control. The format is functional.
The test system of data set [15] is Mus musculus. The data set is described as follows: Antiobesity activity in lean normal BALB/c mouse assessed as change in average daily food intake at 0.52 mmol/kg/day administered through diet for 7 days relative to time-matched control. It counts as functional.
For data set [16], the system named is Mus musculus. The data set is described as follows: Antiobesity activity in lean normal BALB/c mouse assessed as change in average daily food intake at 0.60 mmol/kg/day administered through diet for 7 days relative to time-matched control. It counts as functional.
The test system of data set [17] is Mus musculus. In words: Antiobesity activity in lean normal BALB/c mouse assessed as change in average daily weight at 0.60 mmol/kg/day administered through diet for 7 days relative to time-matched control. The format is functional.
Data set [18] has as its system Mus musculus. The data set is described as follows: Antiobesity activity in lean normal BALB/c mouse assessed as change in average daily weight at 0.57 mmol/kg/day administered through diet for 7 days relative to time-matched control. The format is functional.
Data set [19] concerns Mus musculus. In words: Antiobesity activity in lean normal BALB/c mouse assessed as change in average daily food intake at 0.57 mmol/kg/day administered through diet for 7 days relative to time-matched control. The format is functional.
Data set [20] relates to Mus musculus. In words: Hypoglycemic activity in lean normal BALB/c mouse assessed as blood glucose level at 0.57 mmol/kg/day administered through diet for 7 days relative to time-matched control. The format is functional.
The subject of data set [21] is Mus musculus. In words: Antiobesity activity in lean normal BALB/c mouse assessed as change in average daily food intake at 0.51 mmol/kg/day administered through diet for 7 days relative to time-matched control. The format is functional.
The subject of data set [22] is Mus musculus. The data set is described as follows: Antiobesity activity in lean normal BALB/c mouse assessed as change in average daily weight at 0.51 mmol/kg/day administered through diet for 7 days relative to time-matched control. It counts as functional.
Data set [23] concerns Mus musculus. In words: Hypoglycemic activity in lean normal BALB/c mouse assessed as blood glucose level at 0.51 mmol/kg/day administered through diet for 7 days relative to time-matched control. The format is functional.
Data set [24] concerns Mus musculus. In words: Antiobesity activity in lean normal BALB/c mouse assessed as change in average daily weight at 0.70 mmol/kg/day administered through diet for 7 days relative to time-matched control. The format is functional.
In data set [25] the test system is Mus musculus. In words: Antiobesity activity in lean normal BALB/c mouse assessed as change in average daily food intake at 0.70 mmol/kg/day administered through diet for 7 days relative to time-matched control. The format is functional.
The test system of data set [26] is Mus musculus. In words: Hypoglycemic activity in lean normal BALB/c mouse assessed as blood glucose level at 0.70 mmol/kg/day administered through diet for 7 days relative to time-matched control. It counts as functional.
The test system of data set [27] is Mus musculus. The data set is described as follows: Antiobesity activity in lean normal BALB/c mouse assessed as change in average daily food intake at 0.62 mmol/kg/day administered through diet for 7 days relative to time-matched control. It counts as functional.
Data set [28] has as its system Mus musculus. The data set is described as follows: Antiobesity activity in lean normal BALB/c mouse assessed as change in average daily weight at 0.62 mmol/kg/day administered through diet for 7 days relative to time-matched control. The format is functional.

Here are results for 35 compounds from ChEMBL document CHEMBL1136921, “Benzylguanidines and other galegine analogues inducing weight loss in mice” (J Med Chem, 2009).

Each structure is given as a SMILES string. Activity calls are given as the source filed them. The rule behind the calls is not given here.

For `COc1ccc(CNC(=N)N)c(OC)c1`, the outcome in the data set on Mus musculus [1], in the data set with Mus musculus [2], with Mus musculus [3] and with Mus musculus [4] was inactive.

As for `Cc1ccccc1CNC(=N)N`, the outcome in the data set on Mus musculus [1], with Mus musculus [2], in the data set on Mus musculus [3] and in the data set on Mus musculus [4] was inactive.

On to `N=C(N)N1CCc2ccccc2C1`, for which the result in the data set with Mus musculus [1], in the data set on Mus musculus [2], with Mus musculus [3] and with Mus musculus [4] was inactive.

Turning to `COc1ccc(OC)c(CNC(=N)N)c1`, the outcome with Mus musculus [1], in the data set on Mus musculus [2], in the data set with Mus musculus [3] and in the data set on Mus musculus [4] was inactive.

For `CC(C)=CCNC=N`, the outcome with Mus musculus [5], with Mus musculus [6] and with Mus musculus [7] was inactive.

Regarding `N=C(N)NCC1CCCO1` (stereo not drawn), the result with Mus musculus [1], with Mus musculus [2], in the data set on Mus musculus [3] and with Mus musculus [4] was inactive.

Take `COc1ccc(CNC(=N)N)cc1`: the outcome in the data set on Mus musculus [1], in the data set on Mus musculus [2], in the data set with Mus musculus [3] and in the data set on Mus musculus [4] was inactive.

For the compound `N=C(N)NCc1cccs1`, the Activity result with Mus musculus [8] is reported as “Non-toxic”; in the data set with Mus musculus [9] it was -2.3%; in data set [10], “Stable”; in the data set on Mus musculus [11], 5.6%; in the data set with Mus musculus [12] it was 88%.

For `N=C(N)NCc1c(F)cccc1Cl`, the outcome in the data set with Mus musculus [1], with Mus musculus [2], in the data set with Mus musculus [3] and with Mus musculus [4] was inactive.

As to `N=C(N)NCc1ccc(Br)cc1`, the Activity entry with Mus musculus [8] is given as “Non-toxic”; in the data set on Mus musculus [13] it was 51%; in the data set with Mus musculus [14], -23.3%; with Mus musculus [15], -36.7%.

On to `CCOc1ccc(CNC(=N)N)cc1`, for which the result with Mus musculus [1], in the data set with Mus musculus [2], in the data set on Mus musculus [3] and in the data set on Mus musculus [4] was inactive.

Consider `COc1ccccc1CNC(=N)N`, for which the values for the Activity result with Mus musculus [8], in the data set on Mus musculus [16] and with Mus musculus [17] were “Non-toxic”, -4.1% and -7%, respectively.

`CC(C)CCNC(=N)N`: the outcome in the data set with Mus musculus [1], in the data set on Mus musculus [2], with Mus musculus [3] and with Mus musculus [4] was inactive.

For `N=C(N)NCc1ccccn1`, the result in the data set on Mus musculus [1], in the data set with Mus musculus [2], with Mus musculus [3] and in the data set with Mus musculus [4] was inactive.

In the case of `Cc1ccc(CNC(=N)N)cc1`, the outcome in the data set on Mus musculus [1], in the data set on Mus musculus [2], in the data set on Mus musculus [3] and with Mus musculus [4] was inactive.

Consider `CC(C)=CCNC(=N)NC#N`, for which the result in the data set on Mus musculus [1], with Mus musculus [2], in the data set with Mus musculus [3] and in the data set with Mus musculus [4] was inactive.

`N=C(N)NCc1ccccc1Cl`: the Activity is given as -10.7% with Mus musculus [18], “Non-toxic” in the data set on Mus musculus [8], -21.1% in the data set with Mus musculus [19] and 82% with Mus musculus [20].

In the case of `N=C(N)NCc1ccccc1Br`, the Activity in the data set on Mus musculus [21] is listed as -17.7%; in the data set with Mus musculus [8], “Non-toxic”; in the data set on Mus musculus [22], -6%; with Mus musculus [23], 84%.

Regarding `N=C(N)NCc1ccccc1C(F)(F)F`, the result in the data set on Mus musculus [1], in the data set with Mus musculus [2], in the data set on Mus musculus [3] and in the data set with Mus musculus [4] was inactive.

With `COc1cccc(CNC(=N)N)c1OC`, the result with Mus musculus [1], in the data set with Mus musculus [2], in the data set on Mus musculus [3] and with Mus musculus [4] was inactive.

`COc1ccc(CNC(=N)N)cc1OC`: the result in the data set with Mus musculus [1], in the data set with Mus musculus [2], with Mus musculus [3] and with Mus musculus [4] was inactive.

Take `COc1ccc(CNC(=N)N)c(OC)c1OC`: the outcome with Mus musculus [1], with Mus musculus [2], in the data set with Mus musculus [3] and in the data set with Mus musculus [4] was inactive.

As to `NC(N)=NCc1ccc2c(c1)OCO2`, the values for the Activity entry in the data set with Mus musculus [8], with Mus musculus [16] and with Mus musculus [17] were “Non-toxic”, -18% and -2%, respectively.

As to `CC(C)=CCNc1ncccn1`, the outcome in the data set with Mus musculus [1], in the data set with Mus musculus [2], in the data set on Mus musculus [3] and in the data set with Mus musculus [4] was inactive.

With `N=C(N)NCc1ccc(C(F)(F)F)cc1`, the Activity entry with Mus musculus [8] is on record as “Non-toxic”; in the data set with Mus musculus [24], -10.6%; in the data set on Mus musculus [25], -12.7%; in the data set on Mus musculus [26] it was 75%.

With `COc1cccc(CNC(=N)N)c1`, the result with Mus musculus [1], with Mus musculus [2], in the data set on Mus musculus [3] and in the data set with Mus musculus [4] was inactive.

As to `CC(C)=CCNc1ccccn1`, the result in the data set on Mus musculus [1], in the data set with Mus musculus [2], in the data set with Mus musculus [3] and in the data set on Mus musculus [4] was inactive.

Turning to `N=C(N)NCC1CCCCC1`, the outcome with Mus musculus [1], in the data set with Mus musculus [2], in the data set with Mus musculus [3] and with Mus musculus [4] was inactive.

Take `C=CCNC(=N)N`: the result in the data set on Mus musculus [1], with Mus musculus [2], with Mus musculus [3] and in the data set with Mus musculus [4] was inactive.

Consider `CSCCCNC(=N)N`, for which the result with Mus musculus [1], in the data set with Mus musculus [2], with Mus musculus [3] and in the data set on Mus musculus [4] was inactive.

Take `[H]/N=C(/N)N/C(=N/[H])NCCc1ccccc1` [PHENFORMIN]: the Activity in the data set with Mus musculus [27] was -3.4%; in the data set on Mus musculus [8], “Non-toxic”; in data set [10] it was “Unstable”; with Mus musculus [28], -0.14%.

Consider `CSCCNC(=N)N`, for which the result with Mus musculus [1], in the data set on Mus musculus [2], in the data set on Mus musculus [3] and in the data set with Mus musculus [4] was inactive.

Take `CC(C)=CCNC1=NCCN1`: the result in the data set with Mus musculus [1], with Mus musculus [2], with Mus musculus [3] and with Mus musculus [4] was inactive.

Regarding `N=C(N)NCCCCNC(=N)N`, the result in the data set with Mus musculus [1], with Mus musculus [2], in the data set with Mus musculus [3] and with Mus musculus [4] was inactive.

For `N=C(N)NCc1ccc(O)cc1`, the result with Mus musculus [1], with Mus musculus [2], in the data set with Mus musculus [3] and in the data set with Mus musculus [4] was inactive.
